Measured values from patent US8952024B2, “Herbicidal pyrimidone derivatives” (E I du Pont de Nemours and Company, priority 2009, dated 2015).

Key:
Test in all cases: Test B pre-/postemergence plant response
Assay type in all cases: in vivo
[1] = system: lambsquarters (Chenopodium album)
Summary of the method: (§1)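 Visual injury, 0–100 scale (100 = complete control), rated against controls after 13 to 15 days in greenhouse. Pre-emergence: seeds in loam/sand soil, treated at planting. Post-emergence: 1- to 4-leaf plants (2 to 18 cm) in peat/vermiculite medium. Compounds formulated in non-phytotoxic solvent with surfactant.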

[2] = system: green foxtail (Setaria viridis)
Summary of the method: as §1

[3] = system: Italian ryegrass (Lolium multiflorum)
Summary of the method: as §1

[4] = system: velvetleaf (Abutilon theophrasti)
Summary of the method: as §1

[5] = system: giant foxtail (Setaria faberii)
Summary of the method: as §1

[6] = system: goosegrass (Eleusine indica)
Summary of the method: as §1

[7] = system: blackgrass (Alopecurus myosuroides)
Summary of the method: as §1

[8] = system: downy bromegrass (Bromus tectorum)
Summary of the method: as §1

kochia (Kochia scoparia) = system: kochia (Kochia scoparia)
Summary of the method: as §1

[9] = system: yellow nutsedge (Cyperus esculentus)
Summary of the method: as §1

[10] = system: ragweed (common ragweed, Ambrosia elatior)
Summary of the method: as §1

[11] = system: large crabgrass (Digitaria sanguinalis)
Summary of the method: as §1

[12] = system: Surinam grass (Brachiaria decumbens)
Summary of the method: as §1

[13] = system: johnsongrass (Sorghum halepense)
Summary of the method: as §1

[14] = system: bermudagrass (Cynodon dactylon)
Summary of the method: as §1

[15] = system: woolly cupgrass (Eriochloa villosa)
Summary of the method: as §1

corn (Zea mays) = system: corn (Zea mays)
Summary of the method: as §1

[16] = 250 g ai/ha, Preemergence, 0 to 100 scale
[17] = Postemergence, 31 g ai/ha, scale 0 to 100 (0 no effect, 100 complete control)
[18] = Postemergence, 62 g ai/ha, scale 0 (no effect) to 100 (complete control), 13 to 15 days
[19] = Postemergence, 125 g ai/ha, visual rating after 13 to 15 days, scale 0 (no effect) to 100 (complete control)
[20] = Postemergence, 250 g ai/ha, scale 0 to 100
[21] = Preemergence, 31 g ai/ha, scale 0 to 100 (0 no effect, 100 complete control)
[22] = Preemergence, 62 g ai/ha, scale 0 to 100, 0 no effect, 100 complete control
[23] = Preemergence, 125 g ai/ha, 0 to 100 scale

Substance: 2-(3,5-difluorophenyl)-5-[(2-hydroxy-4-oxobicyclo[3.2.1]oct-2-en-3-yl)carbonyl]-3-(2-methoxyethyl)-4(3H)-pyrimidinone [Compound 243]
- Plant response rating, Lambsquarters [1, 16]: 100
- Plant response rating, Lambsquarters [1, 17]: 75
- Plant response rating, Lambsquarters [1, 18]: 80
- Plant response rating, Lambsquarters [1, 19]: 80
- Lambsquarters plant response rating [1, 20]: 95
- Plant response rating, Lambsquarters [1, 21]: 100
- Plant response rating, Lambsquarters [1, 22]: 100
- Lambsquarters plant response rating [1, 23]: 100
- Plant response rating, Foxtail, Green [2, 17]: 35
- Plant response rating, Foxtail, Green [2, 18]: 40
- Plant response rating, Foxtail, Green [2, 19]: 80
- Foxtail, Green plant response rating [2, 20]: 95
- Plant response rating, Foxtail, Green [2, 21]: 0
- Plant response rating, Foxtail, Green [2, 22]: 0
- Foxtail, Green plant response rating [2, 23]: 5
- Plant response rating, Ryegrass, Italian [3, 16]: 40
- Plant response rating, Ryegrass, Italian [3, 17]: 0
- Plant response rating, Ryegrass, Italian [3, 18]: 0
- Plant response rating, Ryegrass, Italian [3, 19]: 30
- Ryegrass, Italian plant response rating [3, 20]: 45
- Plant response rating, Ryegrass, Italian [3, 21]: 0
- Plant response rating, Ryegrass, Italian [3, 22]: 0
- Ryegrass, Italian plant response rating [3, 23]: 0
- Plant response rating, Velvetleaf [4, 16]: 100
- Plant response rating, Velvetleaf [4, 17]: 85
- Plant response rating, Velvetleaf [4, 18]: 85
- Plant response rating, Velvetleaf [4, 19]: 90
- Velvetleaf plant response rating [4, 20]: 98
- Plant response rating, Velvetleaf [4, 21]: 98
- Plant response rating, Velvetleaf [4, 22]: 100
- Velvetleaf plant response rating [4, 23]: 100
- Plant response rating, Foxtail, Giant [5, 16]: 98
- Plant response rating, Foxtail, Giant [5, 17]: 75
- Plant response rating, Foxtail, Giant [5, 18]: 85
- Plant response rating, Foxtail, Giant [5, 19]: 95
- Foxtail, Giant plant response rating [5, 20]: 100
- Plant response rating, Foxtail, Giant [5, 21]: 0
- Plant response rating, Foxtail, Giant [5, 22]: 15
- Foxtail, Giant plant response rating [5, 23]: 60
- Plant response rating, Goosegrass [6, 16]: 100
- Plant response rating, Goosegrass [6, 17]: 60
- Plant response rating, Goosegrass [6, 18]: 85
- Plant response rating, Goosegrass [6, 19]: 90
- Goosegrass plant response rating [6, 20]: 100
- Plant response rating, Goosegrass [6, 21]: 75
- Goosegrass plant response rating [6, 23]: 100
- Plant response rating, Blackgrass [7, 16]: 40
- Plant response rating, Blackgrass [7, 17]: 0
- Plant response rating, Blackgrass [7, 18]: 0
- Plant response rating, Blackgrass [7, 19]: 40
- Blackgrass plant response rating [7, 20]: 70
- Plant response rating, Blackgrass [7, 21]: 0
- Plant response rating, Blackgrass [7, 22]: 0
- Blackgrass plant response rating [7, 23]: 20
- Plant response rating, Bromegrass, Downy [8, 16]: 10
- Plant response rating, Bromegrass, Downy [8, 17]: 5
- Plant response rating, Bromegrass, Downy [8, 18]: 30
- Plant response rating, Bromegrass, Downy [8, 19]: 40
- Bromegrass, Downy plant response rating [8, 20]: 50
- Plant response rating, Bromegrass, Downy [8, 21]: 0
- Plant response rating, Bromegrass, Downy [8, 22]: 0
- Bromegrass, Downy plant response rating [8, 23]: 5
- Plant response rating, Kochia (kochia (Kochia scoparia); [16]): 100
- Plant response rating, Kochia (kochia (Kochia scoparia); [17]): 10
- Plant response rating, Kochia (kochia (Kochia scoparia); [18]): 15
- Plant response rating, Kochia (kochia (Kochia scoparia); [19]): 25
- Kochia plant response rating (kochia (Kochia scoparia); [20]): 85
- Plant response rating, Kochia (kochia (Kochia scoparia); [21]): 15
- Plant response rating, Kochia (kochia (Kochia scoparia); [22]): 100
- Kochia plant response rating (kochia (Kochia scoparia); [23]): 100
- Plant response rating, Nutsedge, Yellow [9, 16]: 95
- Plant response rating, Nutsedge, Yellow [9, 17]: 20
- Plant response rating, Nutsedge, Yellow [9, 18]: 25
- Plant response rating, Nutsedge, Yellow [9, 19]: 60
- Nutsedge, Yellow plant response rating [9, 20]: 70
- Plant response rating, Nutsedge, Yellow [9, 21]: 0
- Plant response rating, Nutsedge, Yellow [9, 22]: 45
- Nutsedge, Yellow plant response rating [9, 23]: 80
- Plant response rating, Ragweed [10, 16]: 100
- Plant response rating, Ragweed [10, 17]: 70
- Plant response rating, Ragweed [10, 18]: 75
- Plant response rating, Ragweed [10, 19]: 75
- Ragweed plant response rating [10, 20]: 100
- Plant response rating, Ragweed [10, 21]: 55
- Plant response rating, Ragweed [10, 22]: 90
- Ragweed plant response rating [10, 23]: 100
- Plant response rating, Crabgrass, Large [11, 16]: 100
- Plant response rating, Crabgrass, Large [11, 17]: 70
- Plant response rating, Crabgrass, Large [11, 18]: 80
- Plant response rating, Crabgrass, Large [11, 19]: 85
- Crabgrass, Large plant response rating [11, 20]: 95
- Plant response rating, Crabgrass, Large [11, 21]: 0
- Plant response rating, Crabgrass, Large [11, 22]: 90
- Crabgrass, Large plant response rating [11, 23]: 100
- Plant response rating, Surinam Grass [12, 16]: 95
- Plant response rating, Surinam Grass [12, 17]: 55
- Plant response rating, Surinam Grass [12, 18]: 65
- Plant response rating, Surinam Grass [12, 19]: 75
- Surinam Grass plant response rating [12, 20]: 85
- Plant response rating, Surinam Grass [12, 21]: 0
- Plant response rating, Surinam Grass [12, 22]: 45
- Surinam Grass plant response rating [12, 23]: 95
- Plant response rating, Johnsongrass [13, 16]: 98
- Plant response rating, Johnsongrass [13, 17]: 60
- Plant response rating, Johnsongrass [13, 18]: 70
- Plant response rating, Johnsongrass [13, 19]: 85
- Johnsongrass plant response rating [13, 20]: 95
- Plant response rating, Johnsongrass [13, 21]: 0
- Plant response rating, Johnsongrass [13, 22]: 85
- Johnsongrass plant response rating [13, 23]: 90
- Plant response rating, Bermudagrass [14, 16]: 100
- Plant response rating, Bermudagrass [14, 17]: 90
- Plant response rating, Bermudagrass [14, 18]: 95
- Plant response rating, Bermudagrass ([14]; Postemergence, 125 g ai/ha, scale 0 to 100 (0 no effect, 100 complete control), 13 to 15 days): 98
- Bermudagrass plant response rating [14, 20]: 98
- Plant response rating, Bermudagrass [14, 21]: 98
- Plant response rating, Bermudagrass [14, 22]: 100
- Bermudagrass plant response rating [14, 23]: 100
- Plant response rating, Cupgrass, Woolly [15, 16]: 60
- Plant response rating, Cupgrass, Woolly [15, 17]: 70
- Plant response rating, Cupgrass, Woolly [15, 18]: 75
- Plant response rating, Cupgrass, Woolly [15, 19]: 80
- Cupgrass, Woolly plant response rating [15, 20]: 85
- Plant response rating, Cupgrass, Woolly [15, 21]: 0
- Plant response rating, Cupgrass, Woolly [15, 22]: 15
- Cupgrass, Woolly plant response rating [15, 23]: 45
- Plant response rating, Corn (corn (Zea mays); [16]): 10
- Plant response rating, Corn (corn (Zea mays); [17]): 15
- Plant response rating, Corn (corn (Zea mays); [18]): 45
- Plant response rating, Corn (corn (Zea mays); [19]): 75
- Corn plant response rating (corn (Zea mays); [20]): 80
- Plant response rating, Corn (corn (Zea mays); [21]): 0
- Plant response rating, Corn (corn (Zea mays); [22]): 0
- Corn plant response rating (corn (Zea mays); [23]): 0
